Assay results from patent US20030018991A1, “Transformation and regeneration of wheat using increased copper levels” (priority 2001, published 2003).
Like-named read-outs stand apart in the source and are kept apart here.

Assays:
[1] = test system: callus cultures in hexaploid wheat; details: cited from earlier work
[2] = test system: wheat embryogenic calluses induced from scutellar tissues; experiment: Shoot regeneration from embryogenic calluses on RZ regeneration medium supplemented with CuSO4; format: cell-based; details: for optimum range of copper concentration: number of plants regenerated per callus
Procedure: The primary culture explants were immature embryos or scutella. Wheat caryopses containing early-medium milk-stage grains with translucent embryos were harvested and surface-sterilised in 70% ethanol for 5 min and 0.5% hypochlorite solution for 15 min. Under aseptic conditions, embryos of approximately 0.5-1.0 mm length were isolated and either cultured entirely or the embryo axes were removed to produce isolated scutella. Thirty embryos/scutella were placed in the center (18 mm target circle) of a 90 mm Petri dish containing callus induction medium. The callus induction medium for embryos/scutellar tissues, called MD0.5, consisted of solidified (0.5% […], Sigma A3301) modified MS medium supplemented with 9% sucrose, 10 mg l^-1 AgNO3 and 0.5 mg l^-1 2,4-D (Rasco-Gaunt et al., 2001 J. Exp. Bot. 52 (357): 865-874). Embryos/scutella were placed with the embryo-axis side in contact with the medium. Cultures were incubated at 25±1° C. in darkness for approximately 24 hr before bombardment. Embryogenic calluses were transferred, for regeneration, to RZ regeneration medium and cultured under 12 h light (250 μE s^-1 m^-2, from cool white fluorescent tubes) at 25+1° C. for three weeks. The RZ regeneration medium, contained L salts, vitamins and myo-inositol, 3% w/v maltose, 0.1 mg l^-1 2,4-D and 5 mg l^-1 zeatin (Rasco-Gaunt and Barcelo, 1999 Plant Cell Culture Protocols. Methods in Molecular Biology series. Hall, RD ed. 111: 71-81, Humana Press, Totowa NJ) and CuSO4 at concentrations ranging from 0 to 1000 μM. The supplementation of silver nitrate in the range of 1-20 mg l^-1 is optional. Selection agents such as 2-6 mg l^-1 Glufosinate ammonium (Greyhound, United Kingdom) and 10-500 ppm sulfonylurea herbicide e.g. Nicosulfuron (DuPont, France) and Rimsulfuron (DuPont, France) were incorporated in RZ regeneration medium. A second three-week culture passage on the same medium was performed as required, with or without a selection agent. Following culture on RZ regeneration medium, plantlets were cultured for one or two three-week passages on R0 medium (RZ without hormones, AgNO3 and CuSO4 supplementation), with or without the selection agent. To determine the effects of increased copper concentration on shoot regeneration, embryogenic calluses were subcultured onto RZ regeneration medium (see Example 1) supplemented with CuSO4 at concentrations ranging from 0 to 1000 μM. Prior to transfer onto RZ regeneration medium, calluses were induced from scutellar tissues. Procedures for the growth of donor plant materials, isolation of explants and culture initiation are described in Example 1. Following culture on CuSO4 medium, the calluses were transferred to R0 medium (see Example 1). After three weeks, regeneration frequencies of calluses, average number of plant per callus, as well as shoot quality were noted. Regeneration frequency is calculated as the number of shoot-producing calluses divided by the total number of scutella isolated. Percent (%) regeneration is […] multiplied by 100.

[3] = test system: cultures of the anther of tetraploid (pasta) wheat; details: cited from earlier work
wheat scutellar tissues = experiment: Recovery of transgenic wheat lines and plant escapes after particle bombardment, with 100 μM copper in regeneration medium; format: cell-based
[4] = 100 μM copper, PPT selection, different genotypes (Example 4)

O=S(=O)([O-])[O-].[Cu+2] [CuSO4]
regeneration rates relative to original MS copper level (0.1 μM) ([1]; 10 μM CuSO4, Purnhauser 1991): eight times higher | optimum Cu level ([1]; "more detailed" studies cited in Purnhauser 1991): 2 µM | optimum Cu level ([1]; Purnhauser 1991 study): 10 µM | maximum regeneration frequency achieved ([1]; optimum 10 μM Cu, single breeding line, Purnhauser 1991): 59% | shoot quality ([2]; copper levels up to 500 μM, Riband and Imp, versus control 0.1 μM copper): vigorous and prolific | optimum range of copper concentration ([2]; variety Eole): 100 to 150 µM | optimum range of copper concentration ([2]; variety NH535): 100 to 200 µM | regeneration frequencies ([2]; wheat variety Eole, CuSO4 levels up to 300 μM): 100% | Plant regeneration frequency ([2]; wheat variety Imp, CuSO4 levels up to 300 μM): 100% | regeneration frequencies ([2]; wheat variety NH535, CuSO4 levels up to 300 μM): 100% | Plant regeneration frequency ([2]; wheat variety Riband, levels up to 500 μM CuSO4): 100% | effect on regeneration frequency ([2]; while improving shoot quality): no negative effect | production of embryoid from anthers versus control treatment ([3]; 20 or 40 μM CuSO4, three of four genotypes): increased | embryoid production ([3]; fourth genotype, all levels tested (10, 20 or 40 μM)): reduced | production of green plants versus control media ([3]; over the four genotypes, copper-containing media): lower | transformation frequency (wheat scutellar tissues; 100 μM CuSO4, Cadenza and NH535, PPT and sulfonylurea selection systems): improved | frequency of plant escapes (wheat scutellar tissues; [4]): did not have an important effect | recovery of transformants / transformation efficiencies (wheat scutellar tissues; [4]): improved | plant escape frequency (wheat scutellar tissues; 100 μM copper, plasmid pHP8092, PPT selection, varieties Cadenza and NH535): slightly higher | plant escapes (wheat scutellar tissues; 100 μM copper, variety Cadenza, PPT selection, constructs p15629 and pAHC20): clear reduction | escape frequency (wheat scutellar tissues; 100 μM copper, variety NH535, sulfonylurea selection, construct pML146): higher
